Measured values published in article PMC7714071, “Interaction of amyloid beta with humanin and acetylcholinesterase is modulated by ATP” (FEBS Open Bio, 2020).

Test system: Aβ42
Assay: ELISA, binding of biotinylated-HN to immobilised Aβ42
Conditions: Aβ 100 nM on wells, biotinylated-HN 300 nM, increasing HS; three independent assays; Fig. 2B
Experimental: ELISAs were carried out as we previously reported. Nunc MaxiSorp 96‐well flat bottom plate (Thermo Fisher) wells were coated with samples as indicated. The plates were incubated overnight at 4 °C on a shaker to allow binding of the samples to the plate wells. After the incubation, the wells were washed 4× with TBST, filled with 400 µL blocking buffer (110 mM KCl, 5 mM NaHCO3, 5 mM MgCl2, 1 mM EGTA, 0.1 mM CaCl2, 20 mM HEPES, 1% BSA, pH 7.4), and incubated with shaking overnight at 4 °C. The wells were then washed 4× with TBST, and 100 µL of sample at the desired concentration was added to each well and incubated with shaking overnight at 4 °C. TBST was then used to wash the wells 4× before proceeding in one of two ways: (a) biotinylated samples were analyzed by adding 100 µL streptavidin–HRP conjugate in TBST (1 : 2500 dilution) to the samples followed by incubation for 3 h at RT on a shaker, or (b) samples without biotin were analyzed by adding 100 µL TBST containing the primary antibody as per the manufacturer's recommendation, incubating for 3 h at RT on a shaker, followed by washing the wells 4× with TBST. […] The reaction was stopped with 100 µL 2 M H2SO4 after incubating at RT for 0.5–15 min, resulting in a yellow color change, measured by absorbance at 450 nm. […] Statistical analysis was determined by the […] […] Data were expressed as the mean ± SD. […]

heparan sulfate [HS] was tested, and the “effect of HS on binding of HN to Aβ42” value was “No effects”.
